Laboratory results taken from patent publication US20080113983A1, “Nicotinic Acetylcholine Receptor Ligands” (AstraZeneca AB, priority 2004, published 2008).

Biological target: T1, α4 nAChR receptor (Rattus norvegicus, UniProt P09483+P12390)
T1 construct: from tissue; host or cells: rat cortical brain membranes
Assay: Radioligand ([125I]-IPH) binding to rat cortical membranes
Conditions: saturation curves fitted to a one site model
Experimental: Assay for affinity at an α4 nAChR receptor by measuring the binding of [^3H]-(-)-nicotine binding to rat cortical membranes.
A procedure modified from Martino-Barrows and Kellar (Mol Pharm (1987) 31:169-174) may be used. Rat cortical brain membranes are prepared as described in the [^125I]α-BTX binding assay, except that a 500-12000×g membrane fraction is prepared. Membranes (30-150 μg) are incubated with 30-100 pM of the epibatidine analog [^125I]-IPH ((+/−)-exo-2-(2-iodo-5-pyridyl)-7-azabicyclo-[2,2,1]heptane) together with test compound in HB for 1 hour at room temperature with gentle shaking. Membranes may be recovered as described for the [^125I]α-BTX binding assay. Non-specific binding may be determined by 100 μM carbachol. Typically specific binding is about 84%.
Analysis of Binding Data Obtained in α7 nAChR or α4 nAChR receptor assays
IC50 values and pseudo Hill coefficients (nH) may be calculated using the non-linear curve fitting program ALLFIT (DeLean A, Munson P J and Rodbard D (1977) Am. J. Physiol., 235:E97-E102). […] Ki values may be estimated using the general Cheng-Prusoff equation:
Ki=[IC50 ]/((2+([ligand]/KD)^n)^1/n−1)
where a value of n=1 is used whenever nH<1.5 and a value of n=2 is used when nH>1.5. To account for variability, assays may be performed in triplicate and variability will typically be ±5%. Ki values may be determined using six to 11 drug concentrations.

T1 sequence (P12390 25-500): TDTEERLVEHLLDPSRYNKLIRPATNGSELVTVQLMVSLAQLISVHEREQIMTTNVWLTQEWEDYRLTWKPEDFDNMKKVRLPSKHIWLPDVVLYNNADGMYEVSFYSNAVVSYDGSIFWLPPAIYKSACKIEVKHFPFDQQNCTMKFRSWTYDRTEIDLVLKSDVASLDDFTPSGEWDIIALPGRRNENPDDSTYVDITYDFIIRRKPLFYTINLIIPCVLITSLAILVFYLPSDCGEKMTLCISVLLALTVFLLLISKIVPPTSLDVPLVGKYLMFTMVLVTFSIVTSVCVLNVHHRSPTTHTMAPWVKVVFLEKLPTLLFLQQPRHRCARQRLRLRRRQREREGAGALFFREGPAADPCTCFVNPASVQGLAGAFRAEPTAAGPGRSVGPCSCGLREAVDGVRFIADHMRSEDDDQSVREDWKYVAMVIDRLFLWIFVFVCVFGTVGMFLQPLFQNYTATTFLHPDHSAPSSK
T1 sequence (P09483 31-630): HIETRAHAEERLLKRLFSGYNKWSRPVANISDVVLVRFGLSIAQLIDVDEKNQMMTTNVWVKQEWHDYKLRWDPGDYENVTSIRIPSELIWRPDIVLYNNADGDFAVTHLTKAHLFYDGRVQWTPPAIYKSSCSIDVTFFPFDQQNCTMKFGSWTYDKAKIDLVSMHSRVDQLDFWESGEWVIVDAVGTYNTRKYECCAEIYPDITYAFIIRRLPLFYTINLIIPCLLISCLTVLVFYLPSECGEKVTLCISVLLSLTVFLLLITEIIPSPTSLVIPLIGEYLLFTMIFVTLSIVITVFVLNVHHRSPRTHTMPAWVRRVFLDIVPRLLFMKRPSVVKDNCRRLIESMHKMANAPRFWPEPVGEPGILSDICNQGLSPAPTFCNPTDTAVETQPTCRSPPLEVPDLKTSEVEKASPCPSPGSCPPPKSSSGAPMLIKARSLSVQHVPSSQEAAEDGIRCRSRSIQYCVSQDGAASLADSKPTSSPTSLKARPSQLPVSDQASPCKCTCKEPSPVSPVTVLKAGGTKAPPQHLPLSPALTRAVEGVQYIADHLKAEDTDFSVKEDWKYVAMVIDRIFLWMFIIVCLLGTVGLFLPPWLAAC

SMILES: Ic1ccc(C2CC3CCC2N3)cn1 (racemic) [[^125I]-IPH, (+/−)-exo-2-(2-iodo-5-pyridyl)-7-azabicyclo-[2,2,1]heptane]
- Kd: 64 pM
